The target of the experiment is T1, JAK3 (JH1 and JH2 domain) (Homo sapiens, UniProt P52333).
T1 sequence (P52333 521-1111 limits assumed): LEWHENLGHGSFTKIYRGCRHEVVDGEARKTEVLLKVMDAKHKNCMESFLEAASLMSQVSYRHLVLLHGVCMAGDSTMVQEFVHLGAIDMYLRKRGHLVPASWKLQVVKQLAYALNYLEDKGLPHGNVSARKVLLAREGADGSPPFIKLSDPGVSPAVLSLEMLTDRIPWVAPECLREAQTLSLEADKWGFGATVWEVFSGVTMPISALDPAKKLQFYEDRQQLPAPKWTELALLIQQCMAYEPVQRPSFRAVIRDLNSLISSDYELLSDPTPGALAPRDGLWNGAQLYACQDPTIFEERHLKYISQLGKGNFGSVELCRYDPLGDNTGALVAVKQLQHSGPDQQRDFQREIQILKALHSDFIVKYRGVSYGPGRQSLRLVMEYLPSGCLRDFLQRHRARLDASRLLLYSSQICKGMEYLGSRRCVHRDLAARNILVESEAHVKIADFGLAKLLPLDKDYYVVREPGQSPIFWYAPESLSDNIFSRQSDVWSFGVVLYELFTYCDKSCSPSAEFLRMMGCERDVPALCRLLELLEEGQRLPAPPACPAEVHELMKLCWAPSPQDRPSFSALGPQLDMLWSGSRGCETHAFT
The experiment is described as follows: JAK3 Kinase Assay (ELISA of peptide substrate phosphorylation). The note with it: purified JAK3 enzyme, 10 μM ATP, biotinylated peptide substrate, 1 hour at room temperature. The class given is biochemical. The protocol: JAK3 enzyme activity was assayed relative to enzyme phosphorylation using the method described herein.
Sf21 cells derived from the ovarian tissue of the fall armyworm Spodotera frugiperda were obtained from Pharmingen (San Diego, Calif.) and maintained at a temperature of about 26-28° C. in 1 l Bellco spinner flasks at 60-90 rpm. Cell viability was maintained at 95-100%, as determined by a tryptan blue dye exclusion test.
Sf21 cells were infected with a baculovirus expression vector for JAK3 (JH1 and JH2 domain). After 48 hours of infection, cells were harvested and lysed in Tris-saline (pH 7.6) containing 2% NP-40 and a combination of protease inhibitors (Aprotinin, Pepstatin A, Pefabloc, E-64, Leupeptin, and Benzamidine) on ice for 45 minutes.
The JAK3 enzyme was purified from the lysate using glutathione sepharose beads and the enzyme activity was assessed in Costar flat bottom EIA/RIA 96 well plates. The plates were coated with Neutravidin (110 μL) (Pierce Neutravidin Biotin-binding Protein 31000; 1 mg/mL 1:100) diluted in PBS for 1 hour at room temperature. The plates were washed with PBS-0.1% Tween (3 times) to remove unbound Neutravidin, then 1% BSA (150 NIL) in PBS was added to each well to block non-specific binding. The plates was incubated for 1 hour at room temperature and stored at −80° C. until use.
JAK3 enzyme solution (48 μL) in 1.25×TK buffer (62.5 mM HEPES pH 7.5, 12.5 mM MgCl2) containing DTT (42 mM) (Sigma, St. Louis, Mo.) was added to each well of a polypropylene 96 well plate.
A test compound (5 μL) diluted in DMSO (48 μL) and biotinylated peptide enzyme substrate (5 μg diluted in TK buffer containing 10 μM ATP) were added to each well using the double dispense feature of a multichannel electronic biohit. Control wells received DMSO vehicle (5 μL). The contents of the wells were mixed for approximately 8 seconds using a multitube vortexer and the reaction mixture was incubated for 1 hour at room temperature.
After incubation, an aliquot of reaction mixture (90 μL) was transferred into a washed Neutravidin coated plate. The plate was incubated for 15 minutes at room temperature and washed 3 times with PBS-T. PY99 anti-phosphotyrosine antibody (100 μL/well) (Santa Cruz #sc-7020HRP diluted 1:6000 in 1× antibody buffer) was added into each well and the plate was incubated for 40 minutes at room temperature. The antibody buffer contained 10% BSA, 100 mM Tris (pH 7.5), 1M NaCl and 1% Tween 20. The plate washed 3 times with PBS-T, then TMB (100 pLXSigma, St. Louis, Mo.) was added to the each well. The plate was incubated for another 40 mins at room temperature in the dark. The reaction was stopped by the addition of 1M H2SO4 (50 μL/well) and the optical density was read at 450/650 nm.
Test compounds were assayed in triplicate at 16 concentrations at half-log dilutions starting at 200 μM. A maximum and minimum signal for the assay was determined on each plate. The percent inhibition of a test compound was calculated according to the formula [formula]
For a series of test concentrations, the IC50 was derived by graphing percent inhibition against the log of the concentrations tested for a given compound. For those compounds without an IC50, the percent inhibition results are shown at a test concentration of 1 μM.
The term IC50 denotes the concentration at which inhibition is half-maximal. With `O=C1NCc2c1c1c3ccccc3n3c1c1c2c2cc(CO)ccc2n1CC(CO)C3` (centres unmarked) [Cpd 212, 9-hydroxymethyl-12,13-(2-hydroxymethyl-propan-1,3-yl)-6,7,12,13-tetrahydro-5-oxo-5H-indolo[2,3-a]pyrrolo[3,4-c]carbazole], the IC50 was found to be 0.003 µM. For the compound `O=C1NC(=O)c2c1c1c3ccccc3n3c1c1c2c2ccccc2n1CC(O)C(O)CC3` (centres unmarked) [Cpd 11, 12,13-(2,3-dihydroxy-pentan-1,5-yl)-12,13-dihydro-5,7-dioxo-6H-indolo[2,3-a]pyrrolo[3,4-c]carbazole], the IC50 came to 0.009 µM.

`O=C1NC(=O)c2c1c1c3ccccc3n3c1c1c2c2ccccc2n1CC(O)CC3` (centres unmarked) [Cpd 7, 12,13-(2-hydroxy-butan-1,4-yl)-12,13-dihydro-5,7-dioxo-6H-indolo[2,3-a]pyrrolo[3,4-c]carbazole]: the IC50 is 0.005 µM. Next, `O=C(NCc1ccncc1)OC1Cn2c3ccccc3c3c4c(c5c6ccccc6n(c5c32)CC1O)C(=O)NC4=O` (centres unmarked) [Cpd 89, 12,13-{2-[(pyridin-4-yl-methyl)carbamoyloxy]-3-hydroxy-butan-1,4-yl}-12,13-dihydro-5,7-dioxo-6H-indolo[2,3-a]pyrrolo[3,4-c]carbazole]: 0.027 µM.

In the case of `COCCNC(=O)OC1Cn2c3ccccc3c3c4c(c5c6ccccc6n(c5c32)CC1O)C(=O)NC4=O` (centres unmarked) [Cpd 83, 12,13-{2-[(2-methoxy-ethyl)carbamoyloxy]-3-hydroxy-butan-1,4-yl}-12,13-dihydro-5,7-dioxo-6H-indolo[2,3-a]pyrrolo[3,4-c]carbazole], the IC50 worked out at 0.029 µM. With `CN1CCN(C(=O)OC2CCn3c4ccccc4c4c5c(c6c7ccccc7n(c6c43)C2)C(=O)NC5=O)CC1` (centres unmarked) [Cpd 51, 12,13-{2-[(4-methyl-piperazin-1-yl)carbonyloxy]-butan-1,4-yl}-12,13-dihydro-5,7-dioxo-6H-indolo[2,3-a]pyrrolo[3,4-c]carbazole] the figure was over 0.4 µM; with `O=C1NC(=O)c2c1c1c3cc(-c4cncnc4)ccc3n3c1c1c2c2ccccc2n1CC(O)CC3` (centres unmarked) [Cpd 34, 3-pyrimidin-5-yl-12,13-(2-hydroxy-butan-1,4-yl)-12,13-dihydro-5,7-dioxo-6H-indolo[2,3-a]pyrrolo[3,4-c]carbazole], 0.066 µM; with `O=C1NC(=O)c2c1c1c3ccccc3n3c1c1c2c2ccccc2n1C/C=C\C3` [Cpd 1, 12,13-(but-2-en-1,4-yl)-12,13-dihydro-5,7-dioxo-6H-indolo[2,3-a]pyrrolo[3,4-c]carbazole], 0.022 µM. With `CC(C)OCc1ccc2c(c1)c1c3c(c4c5cc(COC(C)C)ccc5n5c4c1n2CC(CO)C5)C(=O)NC3` (centres unmarked) [Cpd 210, 3,9-bis-(isopropoxymethyl)-12,13-(2-hydroxymethyl-propan-1,3-yl)-6,7,12,13-tetrahydro-5-oxo-5H-indolo[2,3-a]pyrrolo[3,4-c]carbazole] the figure was 1.05 µM; with `O=C1NCc2c1c1c3cc(CN4CCOCC4)ccc3n3c1c1c2c2cc(CN4CCOCC4)ccc2n1CC(CO)C3` (centres unmarked) [Cpd 214, 3,9-bis-(morpholin-4-ylmethyl)-12,13-(2-hydroxymethyl-propan-1,3-yl)-6,7,12,13-tetrahydro-5-oxo-5H-indolo[2,3-a]pyrrolo[3,4-c]carbazole], over 50 µM. With `O=C1NC(=O)c2c1c1c3ccccc3n3c1c1c2c2ccccc2n1CC(O)(C(=O)O)C(O)C3` (centres unmarked) [Cpd 13, 12,13-(2-carboxy-2,3-dihydroxy-butan-1,4-yl)-12,13-dihydro-5,7-dioxo-6H-indolo[2,3-a]pyrrolo[3,4-c]carbazole] the figure was 0.009 µM; with `O=C(NCCN1CCCC1)OC1Cn2c3ccccc3c3c4c(c5c6ccccc6n(c5c32)CC1O)C(=O)NC4=O` (centres unmarked) [Cpd 92, 12,13-{2-[(2-pyrrolidin-1-yl-ethyl)carbamoyloxy]-3-hydroxy-butan-1,4-yl}-12,13-dihydro-5,7-dioxo-6H-indolo[2,3-a]pyrrolo[3,4-c]carbazole], 0.097 µM; with `CC(C)(C)OC(=O)NC1CCN(C(=O)OCC2(O)Cn3c4ccccc4c4c5c(c6c7ccccc7n(c6c43)C2)C(=O)NC5)CC1` (centres unmarked) [Cpd 175, 12,13-{2-hydroxy-2-[(4-t-butoxyamido-piperidin-1-yl)carbonyloxymethyl]-propan-1,3-yl}-6,7,12,13-tetrahydro-5-oxo-5H-indolo[2,3-a]pyrrolo[3,4-c]carbazole], 0.244 µM.

For `COCCNC(=O)OCC1Cn2c3ccccc3c3c4c(c5c6ccccc6n(c5c32)C1)C(=O)NC4` (centres unmarked) [Cpd 154, 12,13-{2-[(2-methoxy-ethyl)carbamoyloxymethyl]propan-1,3-yl]-6,7,12,13-tetrahydro-5-oxo-5H-indolo[2,3-a]pyrrolo[3,4-c]carbazole], the IC50 is 0.084 µM. With `O=C1NC(=O)c2c1c1c3ccccc3n3c1c1c2c2ccccc2n1CC(OC(=O)N1CCN(CCO)CC1)C(O)C3` (centres unmarked) [Cpd 104, 12,13-(2-{[4-(2-hydroxy-ethyl)piperazin-1-yl]carbonyloxy}-3-hydroxy-butan-1,4-yl)-12,13-dihydro-5,7-dioxo-6H-indolo[2,3-a]pyrrolo[3,4-c]carbazole] the figure was 0.127 µM; with `CC(C)NC(=O)OC1CCn2c3ccccc3c3c4c(c5c6ccccc6n(c5c32)C1)C(=O)NC4=O` (centres unmarked) [Cpd 39, 12,13-[2-(prop-2-ylcarbamoyloxy)-butan-1,4-yl]-12,13-dihydro-5,7-dioxo-6H-indolo[2,3-a]pyrrolo[3,4-c]carbazole], 0.031 µM. As for `O=C1NCc2c1c1c3cc(/C=C/Cn4ccnc4)ccc3n3c1c1c2c2ccccc2n1CC(CO)C3` (centres unmarked) [Cpd 219, 3-[(1E)-3-1H-imidazol-1-yl-prop-1-en-1-yl]-12,13-(2-hydroxymethyl-propan-1,3-yl)-6,7,12,13-tetrahydro-5-oxo-5H-indolo[2,3-a]pyrrolo[3,4-c]carbazole], the IC50 came to 0.014 µM. Next, `CN1CCN(CCCNCc2ccc3c(c2)c2c4c(c5c6ccccc6n6c5c2n3CC(O)C(O)C6)CNC4=O)CC1` (centres unmarked) [Cpd 197, 3-{[3-(4-methyl-piperazin-1-yl)prop-1-yl]aminomethyl}-12,13-(2,3-dihydroxy-butan-1,4-yl)-6,7,12,13-tetrahydro-5-oxo-5H-indolo[2,3-a]pyrrolo[3,4-c]carbazole]: 0.693 µM; `O=C1NCc2c1c1c3cc(/C=C/Cn4ccnc4)ccc3n3c1c1c2c2cc(CO)ccc2n1CC(CO)C3` (centres unmarked) [Cpd 223, 3-[(1E)-3-1H-imidazol-1-yl-prop-1-en-1-yl]-9-hydroxymethyl-12,13-(2-hydroxymethyl-propan-1,3-yl)-6,7,12,13-tetrahydro-5-oxo-5H-indolo[2,3-a]pyrrolo[3,4-c]carbazole]: 0.003 µM. Take `O=C1NCc2c1c1c3cc(/C=C/CNC4=NCCN4)ccc3n3c1c1c2c2ccccc2n1CC(CO)C3` (centres unmarked) [Cpd 221, 3-{(1E)-3-[(4,5-dihydro-1H-imidazol-2-yl)amino]-prop-1-en-1-yl}-12,13-(2-hydroxymethyl-propan-1,3-yl)-6,7,12,13-tetrahydro-5-oxo-5H-indolo[2,3-a]pyrrolo[3,4-c]carbazole]: the IC50 came out at 0.031 µM.

Source of the values: patent US20070249590A1, “Substituted indolo[2,3-a]pyrrolo[3,4-c]carbazole compounds useful in treating kinase disorders” (priority 2005, published 2007).
